Laboratory results: patent US9475789B2, “Use of polyenylpyrrole derivatives for treating inflammation” (WELLHEAD BIOLOGICAL TECHNOLOGY CORP., priority 2014, dated 2016)
“Also recorded” adds a separate entry of the source.

Experiments:
IL-6 [1] = experiment: IL-6 ELISA, LPS-primed ATP-stimulated J774A.1 macrophages; type: cell-based, mouse; settings: LPS-primed J774A.1; compound 30 min before ATP stimulation
Description: (§1) (A) J774A.1 macrophages (1×10^6/ml) and (B) peritoneal macrophages (1×10^5/ml) were incubated with compound 1h for 30 min followed by LPS (1 μg/ml) stimulating for 5.5 h, then the cells were stimulated with ATP (5 mM) for an additional 30 min. The IL-1β in the culture medium was measured by ELISA and the expression of active caspase-1 (p10) was measured by Western blot. In (C) and (D), J774A.1 macrophages (1×10^6/ml) were incubated with LPS (1 μg/ml) for 5.5 h, then cells were incubated with compound 1h for 30 min followed by stimulating with ATP (5 mM) for an additional 30 min. The IL-1β and IL-6 in the culture medium were measured by ELISA and the expression of active caspase-1 (p10) was measured by Western blot. In (E), J774A.1 macrophages (1×10^6/ml) were incubated with compound 1h for 30 min followed by LPS (1 μg/ml) stimulating for 6 h. The expression of NLRP3 and proIL-1β were measured by Western blot.
The effects of tested samples on IL-1β, TNF-α and IL-6 production were measured by ELISA according to the manufacturer's instruction. […] Following the addition of 100 μl of stop solution to each well to stop the reaction, the absorbance of the plate was measured by a microplate reader at 450 nm wavelength.

NLRP3 = experiment: Western blot of NLRP3, LPS-activated J774A.1 macrophages; type: cell-based, mouse; settings: compound 30 min, then LPS 6 h
Description: as §1
Whole cell lysates were separated by SDS-PAGE and electrotransferred to a PVDF membrane. The membranes were incubated in blocking solution—5% nonfat milk in phosphate buffered saline with 0.1% Tween 20—at room temperature for 1 h. Each membrane was incubated with a specific primary antibody at room temperature for 2 h. After washing three times in PBS with 0.1% Tween 20, the membrane was incubated with an HRP-conjugated secondary antibody directed against the primary antibody. […]

[2] = system: LPS-induced NO generation in RAW 264.7 macrophages; experiment: NO inhibitory assay (Griess reaction) in LPS-activated macrophages; type: cell-based, murine
Description: In (A) and (C), cells (5×10^5/ml) were incubated with polyenylpyrrole derivatives or DMSO (vehicle) for 30 min followed by stimulating with LPS (1 μg/ml) for 24 h, then NO (A), IL-6 and TNF-α (C) concentration in culture medium were assayed by Griess reaction and ELISA, respectively. In (B), cells (5×10^5/ml) were pretreated with polyenylpyrrole derivatives or DMSO for 30 min followed by stimulating with LPS (1 μg/ml) for 24 h, then the protein expression of iNOS and COX-2 were assayed by Western blot. […] RAW 264.7 cells were seeded in 24-well plates at a density of 5×10^5 cells/ml, and then incubated with or without LPS (1 μg/ml) in the absence or presence of tested samples for 24 h. The effects of the tested samples on NO production were measured indirectly by analysis of nitrite levels using the Griess reaction.

NF-κB = NF-κB reporter assay (SEAP), RAW-Blue cells; type: cell-based, murine; settings: compound 1h 2.5-40 μM, LPS 24 h
Description: (§2) (A) RAW 264.7 macrophages (5×10^5/ml) or (B) J774A.1 macrophages (5×10^5/ml) were incubated with compound 1h or DMSO for 30 min followed by LPS (1 μg/ml) stimulating for 20 min, then the phosphorylation levels of IKK-α and IκB-α and total IκB-α protein level were analyzed by Western blot. (C) RAW 264.7 macrophages (5×10^5/ml) or (D) J774A.1 macrophages (5×10^5/ml) were incubated with compound 1h (10-40 μM) or DMSO for 30 min followed by LPS (1 μg/ml) stimulating for 20 min, then the nuclear translocation of NF-κB were analyzed by ELISA. (E) RAW-Blue™ cells (5×10^5/ml) were incubated with compound 1h (2.5-40 μM) or DMSO for 30 min followed by LPS (1 μg/ml) stimulating for 24 h, then the SEAP activity was measured by QUANTI-Blue™. […] In (C), (D), and (E), the data are expressed as the mean±SD for three separate experiments. *, **, and *** indicate a significant difference at the level of p<0.05, p<0.01, and p<0.001 respectively compared to LPS group.
RAW-Blue™ cells, RAW 264.7 macrophages which stably express a secreted embryonic alkaline phosphatase (SEAP) gene inducible by NF-κB, were seeded in 60 mm dishes at a density of 5×10^5 cells/ml, and grown overnight in a 5% CO2 incubator at 37° C. […] Results of the SEAP activity were assessed by measuring the optical density at 655 nm using an ELISA reader.

IL-6 [3] = experiment: IL-6 ELISA, LPS-activated peritoneal macrophages; type: cell-based, C57BL/6 mice; settings: LPS 1 μg/ml 24 h
Description: (A) J774A.1 macrophages (4×10^5/ml), (B) peritoneal macrophages (4×10^5/ml), and (C) JAWSII dendritic cells (4×10^5/ml) were incubated with compound 1h or DMSO for 30 min followed by stimulating with LPS (1 μg/ml) for 24 h, then IL-6 and TNF-α concentration in culture medium were assayed by ELISA. The data are expressed as the mean±SD for three separate experiments. *, **, and *** indicate a significant difference at the level of p<0.05, p<0.01, p<0.001 respectively compared to LPS group.
The effects of tested samples on IL-1β, TNF-α and IL-6 production were measured by ELISA according to the manufacturer's instruction. In brief, 50 μl of biotinylated antibody reagent and 50 μl of supernatant were added to an anti-mouse IL-1β, TNF-α and IL-6 precoated stripwell plate, and incubated at room temperature for 2 h. After washing the plate three times with washing buffer, 100 μl of diluted streptavidin-HRP concentrate was added to each well and incubated at room temperature for 30 min. The washing process was repeated; then 100 μl of a premixed tetramethylbenzidine substrate solution was added to each well and developed at room temperature in the dark for 30 min. Following the addition of 100 μl of stop solution to each well to stop the reaction, the absorbance of the plate was measured by a microplate reader at 450 nm wavelength.

NF-κB p65 = NF-κB p65 nuclear translocation ELISA, RAW 264.7 macrophages; type: cell-based, murine; settings: compound 1h 10-40 μM, LPS 20 min
Description: as §2
Nuclear protein from RAW 264.7 and J774A.1 cells were extracted using a Nuclear Extract Kit (Active Motif) according to the manufacturer's instructions and nuclear NF-κB p65 activation quantified using an ELISA-based TransAM NF-κB kit (Active Motif, Tokyo, Japan) according to the manufacturer's protocol by reading the absorbance with a microplate absorbance reader (Bio-Rad Laboratories, Inc) at 450 nm with a reference wavelength of 655 nm.

In the case of O=c1cc(O)cc(/C=C/C=C/C=C/C=C/c2[nH]ccc2Cl)o1 [Compound 1h], the IL-6 secretion (IL-6 [1]) is reported as “no significant effect”, the NLRP3 expression (NLRP3) is reported as “increased NLRP3 expression” and the EC50 ([2]; Mus musculus, RAW264.7, 50% inhibition of the LPS-induced NO generation, RAW 264.7, LPS 1 μg/ml, 24 h, read-out: ED50 (the source's name)) is reported as 15 ± 2 µM. For the same molecule, the “production of NO by LPS-activated cells” value ([2]; RAW 264.7, LPS 1 μg/ml 24 h, Griess reaction) was “decreased production; also recorded: decreased the production of NO by LPS-activated cells in a dose-dependent manner”, the “background level of NO” value ([2]; compound alone, no LPS, RAW 264.7, data not shown) was “did not alter” and the NF-κB transcriptional activity (NF-κB) was “reduced”. The “secretion of IL-6” value (IL-6 [3]) was “reduced” and the NF-κB nuclear translocation (NF-κB p65) was “inhibited NF-κB nuclear translocation”.
